From US10335417B2, “Thiazideamide derivative and use thereof” (Institute of Pharmacology and Toxicology Academy of …, priority 2015, dated 2019)

Key:
MDCK-MDR1 cells = experiment: in vitro; details: dog, MDCK-MDR1, 120 min
Description: (§1) MDCK-MDR1 cells were monolayer cells which highly express P-gp transporter after transfection of MDCK (Madin-Darby canine kidney epithelial cell) with MDR1 gene. Due to its density and high expression of efflux protein, the monolayer has similarity compared to blood-brain barrier (BBB) structure and now can be used as one of models for evaluating the ability of passing through BBB. In the invention, MDCK-MDR1 cells were used to study the membrane permeability of the compounds according to the invention, and to primarily evaluate its ability of passing through BBB.
(§2) The frozen MDCK-MDR1 cells were quickly thawed in a 37° C. water bath. To the resuscitated cells, DMEM medium containing 10% FBS was added, and the cells were cultured in an incubator at 37° C., 5% CO2, and a relative humidity of 90%. The medium was changed every other day. After fusion of the cells growing for 1-2 days, the cells were digested with 0.25% trypsin-EDTA (0.2%) mixed digestion solution at 37° C., and were sub-cultured at a certain ratio. The cells for use in experiment were those passaged for 40-60 generations.
(§3) When the cell fusion degree reached 80%, the cells were digested and then suspended in complete medium, and seeded to Millicell plate at 1×10^6 cells·mL^−1. The medium was changed every other day, and 1 week later, the medium was changed every day. After culturing for 5 days, the resistance value reached a constant value (>200 Ω·cm^2), and the cells could be used in the transport experiment.
(§4) After washing with 37° C. HBSS twice, the cells were incubated in a 37° C. culture incubator, wherein Rho-123 was added to the upper wells, and HBSS was added to the bottom wells. The incubation was carried out in a constant temperature shaker, and the solutions from the bottom wells were collected at each time point (0 min, 30 min, 90 min, 120 min), and stored at −20° C. for further use. The amount of Rho-123 permeated to the bottom well was determined by fluorospectrophotometer, wherein the emission wavelength was […], and the excitation wavelength was 530 nm.
(§5) The permeability from cavity-surface to basal surface: drug-containing HBSS 0.35 mL was add to Apical (AP), and blank HBSS 1.2 mL was added to Basolateral (BL). The Millicell was placed at 37° C. in a shaker under shaking at 50 r·min^−1, 50 μL sample was collected from the bottom well at 0, 30, 90, 120 min, respectively, and the same volume of blank HBSS was supplemented. 3 wells were set for each concentration, and to the sample, an internal standard solution (50 μL) and ethyl acetate (350 μL) were added precisely. The mixture was mixed homogeneously under shaking, and centrifuged at 12000 rmp for 5 min. The supernatant (300 μL) was volatilized to dryness, and re-dissolved in 50 μL acetonitrile. The 10 μL resultant solution was used for determination.
(§6) The permeability from basal surface to cavity surface: the drug is added to Basolateral (BL), and blank HBSS was added to Apical (AP), and the other steps were the same as those of the experiment for determining the permeability from cavity-surface to basal surface.
(§7) The apparent permeability coefficient (Papp) of a drug reflects the ability of the drug to pass through cell monolayer and the drug absorption rate and extent. It can be calculated in accordance with the following equation: […]
(§8) wherein, Q represents the amount of drug permeated in the t period, A represents cell surface area, and represents the area (0.6 cm^2) of supporting film in this model, and C0 represents an initial concentration. The unit of Papp is expressed as cm·s^−1.
(§9) By measurement using LC/MS, the concentration of each sample was quantitated using its standard curve (50 nM-10000 nM).

in vitro = details: dog, MDCK-MDR1
Description: as §1, §2, §3, §4, §5, §6, §7, §8, §9

[1] = tested on: chick embryo dorsal root ganglion; experiment: in vitro serum-free culture model of chick embryonic dorsal root ganglion: neurite growth score with NGF; type: cell-based; details: for Average score (growth of neurites of chick embryo dorsal root ganglion): 48 h, score 0-3, average of five ganglions, control 0.33
Description: The neurotrophic activity of the compounds according to the invention can be embodied in multiple in vitro biological models, such as in vitro serum-free culture model of chick embryonic dorsal root ganglion.
Experimental method: in a sterile environment, chick embryo, which had been incubated for 8 d, had the spinal and bilateral ganglion exposed under anatomical lens. Dorsal root ganglions were picked one by one using sharp forceps, and seeded in culture bottles spread with rat tail collagen, at a density of 5-6 ganglions per bottle, and two bottles for each dose. After attachment culture in a 37° C., 5% CO2 incubator for 1 h, serum-free medium DMEM containing nerve growth factor (NGF) (0.15 ng/mL), and the compound according to the invention were added. In the control group, only the medium and the same dose of NGF were added. After culture in the incubator for 48 h, the growth of neurite around dorsal root ganglion was observed under inverted phase contrast microscope, which was scored depending on the length and density of neurite.
Evaluation criteria: 0: no neurite; 1: rare long neurite; 2: relatively long or dense neurite; 3: long and dense neurite.

[2] = tested on: BCAO-LBP mice (incomplete global cerebral ischemia); experiment: mouse BCAO-LBP model of incomplete global cerebral ischemia: cerebral MDA content and neurological function score; type: in vivo, Kunmin mice; details: for Neurologic deficit score / MDA content: 30 mg/kg i.g. once/d for 3 d, x ± SEM; for Neurologic deficit score: behaviour within 6 h after ligation, model group 3.92, sham 0.00; for neurologic deficit score decreased compared to the group administered with Compound 6: 30 mg/kg i.g., BCAO-LBP mice; for MDA content: whole cerebrum, model group 40.94, sham 33.15
Description: In the Example, Kunmin mice were used as experimental subjects, intragastric (i.g.) administration was used, mouse BCAO-LBP (bilateral carotid artery occlusion with low blood pressure) model was used, and by determining neurological function score and the cerebral malondialdehyde (MDA) content in mice, the compounds were investigated for their protective effects on incomplete global cerebral ischemia in mice when administered prophylactically.
2.1.2 Preparation of a drug for intragastric administration: the compound was prepared to a 1.5 mg/ml solution using 0.7% CMC-Na solution.
28 mice, which had adapted to the laboratory environment for 1 week, were evenly grouped depending on body weight. The mice were intragastrically administered with 0.7% CMC-Na or one of the compounds, once/d, for 3 d. The groups were as followed:
Administration group: 12 mice, intragastrically administered at a dose of 0.2 ml/10 g, i.e., the dose of the compound was 30 mg/kg.
2.3.1 Mouse bilateral carotid artery ligation: 1 h after the last administration, the mice were subjected to orbital bloodletting to reduce blood pressure (which was about 30% of the total blood volume of the mice), and then fixed in supine position on the operating table, and cut in the middle of neck. Carotid artery was subjected to blunt dissection, and 2 lines were used in ligation for each side. The time counting started after the ligation with the third line, the carotid artery was cut off between the two lines, and the incision was sewn up. In the Sham-operated group, the carotid artery was only separated without ligation. After the operation, the mice were unfixed quickly, and the mice were observed and recorded for the behaviors within 6 h (scoring depending on the following table using blind method) and the death time. The brains were taken quickly after the mice died, the cerebellums were removed, and the MDA content in the whole cerebrum was determined by thiobarbituric acid (TBA).
The cerebra of mice were taken and weighed, and were prepared into 15% brain homogenate using N.S. 1.2 ml brain homogenate was placed in a 37° C. water bath for 1 h (shaking once every 10 min) and then taken out. 20% trichloroacetic acid 0.6 ml was added, and the mixture was mixed well, and was on standing for 10 min. After centrifugation at 2000 rpm for 10 min, to 1.2 ml supernatant, 0.67% TBA 0.6 ml was added. The mixture was placed in a boiling water bath for 10 min, and was taken out for cooling, and the OD value at a wavelength of 532 nm was determined.
The experimental data was expressed as x±SEM; SPSS 13.0 statistic software was used. Homogeneity or heterogeneity of variance was determined by one-factor analysis of variance. In the case of homogeneity of variance, LSD test was used; in the case of heterogeneity of variance, Dunnett's T3 test was used. Significant difference among different groups was compared, and P<0.05 indicated statistical significance.

[3] = compound 100 pM + NGF 0.15 ng/mL

Row | SMILES | Papp value increased compared to Compound 6 (MDCK-MDR1 cells) | Papp at 120 min (in vitro) | Average score (growth of neurites of chick embryo dorsal root ganglion) ([1]; compound 1 pM + NGF 0.15 ng/mL) | Average score (growth of neurites of chick embryo dorsal root ganglion) [1, 3] | neurotrophic activity increased compared to Compound 6 ([1]; dose 1 pM) | neurotrophic activity increased compared to Compound 6 ([1]; dose 100 pM) | Neurologic deficit score [2] | neurologic deficit score decreased compared to the group administered with Compound 6 [2] | MDA content [2]
1 | CCc1ccc(S(=O)(=O)N2CCSC[C@H]2C(=O)NC(CC(C)C)C(=O)OC(C)C)cc1 (stereo in doubt) [Compound 28, (3R)-4-[(4-ethylbenzenesulfonyl)]tetrahydro-1,4-thiazin-3-carbonyl-L-leucine isopropyl ester] | above 7% | 458 nm/s | 2.00 | 2.96 | 19% | 16% | 1.87 ± 0.31 | ~10% | 30.90 ± 1.65 nmol/g
2 | Cc1ccc(S(=O)(=O)N2CCSC[C@H]2C(=O)N[C@@H](Cc2ccccc2)C(=O)OC(C)C)cc1 [Compound 23, (S)-isopropyl-3-phenyl-2((R)-(4-methylphenyl)sulfonyltetrahydro-1,4-thiazin-3-aminoformyl)propionate] | above 7% | 442 nm/s | 2.12 | 3.21 |  |  | 1.81 ± 0.26 | ~13% | 31.87 ± 0.95 nmol/g
